According to patent US20050020544A1, “Bicyclic CB2 cannabinoid receptor ligands” (priority 2002, published 2005):

Legend:
[1] = test system: Lewis rats; type: in vivo, rat
Method: Various animal models of autoimmune encephalomyelitis are known in the art, depending on the method of induction, the strain of the animal and the antigen employed to induce the disease. The impact of bicyclic CB2 ligands was tested in EAE using Lewis rats in which the onset of disease is observed by the appearance of clinical symptoms about 10 days after induction. The disease progress and the clinical score increase and peak around day 15 and spontaneous recovery is observed around day 18 after induction of the disease. The animals (at least 9 per test group at initiation of study, except for the untreated control group that comprised only 5 rats) were maintained on a 12 hours light/12 hours dark regimen, at a constant temperature of 22° C., with food and water ad libitum. EAE was induced in these animals by immunization with s.c. injection to the hind paws of 25 μg of purified guinea pig myelin basic protein (MBP, Sigma) emulsified in 0.1 ml of Complete Freund's Adjuvant (Difco).
Methylprednisolone was used as positive control and it was administered daily for 5 consecutive days i.v. at 30 mg/kg starting from day of disease induction by MBP injection. The results are recorded as clinical score; score of 0 indicates a normal animal with no clinical signs, 0.5 indicates a loss of tonicity in the tail's distal part, 1 indicates whole tail paralysis, 2 indicates paraplegia, 3 indicates quadriplegia, 4 indicates complete body paralysis and moribund state and 5 indicates death. The clinical score of the animals is recorded for 11 days following onset of disease and the area under the curve (AUC) is calculated over this period of time.
Moreover, in a separate study animals were euthanized 15 days after induction of the disease by i.p. injection of 100 mg/kg pentobarbital. Brains and spinal cord were removed and were fixed by overnight incubation with 4% Paraformaldehyde. The cervical segment of the spinal cord was dehydrated using ethanol solutions of increasing concentration and then embedded in paraplast. The spinal cord was then sectioned (10 μm) and staining was performed using hematoxylin and eosin. The stained slides were examined under light microscopy for foci of infiltrating lymphocytes. Number of foci were counted and averaged in 6 sections for each animal. Three groups of at least 4 animals each were tested in this system: untreated, vehicle treated, and animals treated with 0.5 mg/kg of compound A. Results are expressed as average±SD of number of foci.

[2] = test system: Male ICR mice; assay: Rotarod locomotor ability; type: in vivo, mouse; conditions: 10 mg/kg i.p.
Method: The effect of test compounds on overall locomotor ability was assessed in a second experimental setup, where the animals were submitted to a functional test using the rotarod apparatus as described by Rozas et al. (Rozas G. et al., J. of Neuroscience Methods 83: 165-75, 1998). The animals, male ICR mice (average body weight 40 g, Harlan, Israel), were trained for 4 days before beginning the experiment. Their task was to stay on the accelerating rod without falling for 12 minutes (3 minutes at each speed). The tested speeds were: 15, 19, 23 and 27 rpm. Animal performance on the rod was scored as follows: each animal could obtain a maximum of 3 points (1 for each minute) for full walking on the rod at each speed. Therefore, an animal could get a maximum score of 12 points (3 for each speed). Catching the circling beam of the rod without walking subtracted 0.5 points for every 3 circles circled by the animal. […] After proper training, at least 6 animals per group were administered i.p. with various doses of test compounds and controls, at volume dose of 5 ml/kg. Score was determined in the rotarod apparatus at time zero prior to compound injection and 30 minutes, 3 and 24 hours after compound or vehicle administration.
Results are expressed as mean±SD and the differences between vehicle and treatments are compared by ANOVA, followed by post-hoc Tukey's test. […] This effect disappeared at later time points with average scores of 9.7 and 11.9 at 3 and 24 hours respectively.

[3] = test system: ICR male mice; assay: Development of tolerance on repeated administration, tail flick model; conditions: 10 mg/kg twice daily i.p.
Method: ICR male mice (20-30 g average body weight, Harlan, Israel) were injected i.p. at the volume dose of 5 ml/kg. Each treatment group contained at least 6 animals. Morphine HCl was used as positive control at the final dose of 5 mg/kg. Its vehicle, saline, was also included as control. The test compounds were dissolved in CREMOPHOR EL®:ethanol and diluted 1:20 in saline prior to injection, this second type of vehicle was also included as negative control. The final dose injected varied from 0.1 to 10 mg/kg. At predetermined time points after treatment injection, the animals were placed in the tail flick system (Socrel, model DS 20). Animals were gently held while their tails were located above the photoelectric cell. The tails were then illuminated (21V) at 2 cm from the distal tip and the latency time, measured in seconds, was recorded in duplicates. At the end of the study, the animals were euthanized by i.p. injection of 100 mg/kg sodium pentobarbitone.
Tolerance was assessed in the tail flick model above described. Briefly, the test compounds were administered twice daily i.p. for up to 10 days to groups of 10 animals each. The noxious pain threshold was measured as previously described in example 13 thirty minutes after the first drug administration on days 1, 4, 8 and 10. Results are expressed as mean latency time till the animal flicked its tail±SE. The differences between the latency times or the % of animals showing analgesia among various treatment groups was analyzed by analysis of variance (ANOVA) followed by post-hoc Tukey's test (for latency) or Fisher's exact test (for % animals). A value of p<0.05 is considered to be statistically significant.

## CCCCCCC(C)(C)c1cc(O)c(C2CC(=O)C3CC2C3(C)C)c(O)c1 (single isomer, unassigned; (-)) [Compound A, (−)-4-[4-(1,1-Dimethyl-heptyl)2,6-dihydroxy-phenyl]-6,6-dimethyl-bicyclo[3.1.1)heptan-2-one]
[1]; 0.5 mg/kg, 15 days after induction
  decrease of infiltration: more than 50%
[1]; 0.5 mg/kg, 15 days after induction, average±SD
  number of infiltration foci in spinal cord: 10±5 foci/section
[1]; 1 mg/kg, independent blinded repeat
  reduction in the clinical score: 30%
[1]; 1 mg/kg, three consecutive days from onset of disease
  reduction in the AUC of the clinical score: 35%
[1]; EAE, 1 mg/kg versus tolerated 40 mg/kg
  therapeutic index: at least 40
[2]; 3 hours
  rotarod average score: 9.7
[2]; 24 hours
  rotarod average score: 11.9
[2]; thirty minutes, maximal score 12
  rotarod average score: 5.6
[3]; 20 administrations
  development of tolerance: did not cause the development of tolerance
[3]; day 10
  % of animals showing increased analgesia: 80%
  latency time: 7 s
[3]; day one
  % of animals showing increased analgesia: 88%
  latency time: 8.1 s
